# Assays:
# [1] = Stability in mouse plasma incubations; assay type: in vitro ADME
# Experimental: (§1) To determine prodrug stability in mouse, rat, human or plasma from other species, prodrugs (10 μM) or positive controls (10 μM, propantheline or procaine) are incubated in undiluted plasma. Duplicate samples of prodrugs and controls are prepared and analyzed. Stock solutions of prodrugs are prepared in DMSO (10 mM) and diluted to 0.1 mM in pH 7.4 phosphate buffer to prepare spiking solutions. The prodrug spiking solutions are aliquoted (10 μL) into 96-well plates. Pre-warmed (37° C.) plasma (90 μL) is added to the wells designated for 5, 15, 30, 45 and 60 min time points; for t=0 min the quench solution (400 μL acetonitrile) is added directly to the prodrug containing well followed by 90 μL of pre-warmed plasma. At 5, 15, 30, 45 and 60 min 400 μL aliquots of acetonitrile are added to the wells to stop the reaction. After quenching, the plates are shaken for 10 min (600 rpm) and then centrifuged at 5500 g for 15 min. Aliquots (50 μL) are transferred to the analysis plate and diluted with 100 μL ultrapure water (Millipore) for LC-MSMS quantitation of prodrug concentrations, and in some cases creatine and/or creatinine. Chromatography columns (e.g., Atlantis HILIC Silica, Gemini C-18, Ultimate XB-C18) are selected based upon the lipophilicity and polarity of each prodrug. LC-MSMS platforms (e.g., Sciex API4000, Sciex API6500) are also selected based on the requirements of each prodrug. The stabilities of the compounds of the present disclosure (prodrugs) in mouse plasma incubations is shown in Table 4 and stability in human plasma incubations is shown in Table 5.
# [2] = Stability of prodrugs in simulated gastric fluid (SGF) with and without pepsin; assay type: in vitro ADME; details: prodrug 10 μM, 37° C.
# Experimental: For determination of stability in simulated gastric fluid (SGF), prodrug (10 μM) is incubated in SGF (0.2% NaCl w/v, 0.7% HCl v/v, pH1.2) with and without addition of pepsin (3.2 g of purified pepsin per liter with an activity of 800-2500 units per mg of protein) at 37° C. At selected time points (e.g., 0, 15, 30, 60 and 120 min) 50 μL aliquots are removed and neutralized by addition of 50 μL of 0.1M sodium bicarbonate solution, followed by 150 μL of ice-cold acetonitrile. Samples are centrifuged at 4,000×g for 15 min at 4° C., and the supernatants are removed and analyzed for prodrug, creatine and creatinine concentrations by LC-MSMS (Table 2).
# [3] = Metabolic stability in mouse liver microsomal incubations; assay type: in vitro ADME
# Experimental: (§2) Incubations are conducted at 37° C. in the presence or absence of NADPH regenerating system to indicate whether metabolism proceeds via an NADPH requiring enzyme (i.e. P450s, FMOs, NADPH-P450 reductase or other oxidase enzymes). Duplicate samples of prodrugs and controls are prepared and analyzed. Stock solutions of prodrugs are prepared in DMSO (10 mM) and diluted to 0.05 mM in a mixture of 25% MeOH/pH 7.4 phosphate buffer to prepare spiking solutions. The prodrug spiking solutions are aliquoted (10 μL) into 96-well plates. Pre-warmed (37° C.) microsome solution (80 μL) is added to the wells designated for 5, 15, 30, 45 and 60 min time points and incubated for 10 min before initiating the reaction with 10 μL of NADPH regenerating solution. For t=0 min the quench solution (300 μL acetonitrile) is added directly to the prodrug containing well followed by the microsome solution and NADPH solution. Incubations of the prodrugs in heat-inactivated fractions or buffer are conducted to differentiate enzymatic from non-enzymatic degradation. At specified time points (e.g., 0, 5, 10, 20, 30 and 60 min), samples are taken and terminated with an equal volume of cold acetonitrile containing a suitable internal standard (e.g., labetalol, tolbutamide). After quenching, the plates are centrifuged at 4000 g for 20 min. Aliquots (100 μL) are transferred to the analysis plate and diluted with 400 μL ultrapure water (Millipore) for LC-MSMS quantitation of prodrug concentrations, and in some cases creatine and/or creatinine. Chromatography columns (e.g., ACE 5 Phenyl, Phenomenex C18 Synergi Hydro-RP, Atlantis HILIC Silica) are selected based upon the lipophilicity and polarity of each prodrug. LC-MSMS platforms (e.g., Sciex API4000, Sciex API6500) are also selected based on the requirements of each prodrug. The metabolic stability of the compounds of the present disclosure of in mouse liver microsomal incubations is shown in Table 6 and human liver microsomal incubations is shown in Table 7.
# [4] = Stability of prodrugs in simulated intestinal fluid (SIF) with and without pancreatin; assay type: in vitro ADME; details: prodrug 10 μM, 37° C.
# Experimental: For determination of stability in simulated intestinal fluid (SIF), prodrug (10 μM) is incubated in SIF (0.68% KH2PO4 w/v, 0.86% NaOH v/v, pH 6.8) with and without addition of pancreatin (1% w/v) at 37° C. At selected time points (e.g., 0, 15, 30, 60 and 120 min) 50 μL aliquots are removed and the reactions are terminated by addition of 150 μL of ice-cold acetonitrile. Samples are centrifuged at 4,000×g for 15 min at 4° C., and the supernatants are removed and analyzed for prodrug, creatine and creatinine concentrations by LC-MSMS (Table 3).
# [5] = Stability in human plasma incubations; assay type: in vitro ADME
# Experimental: as §1
# [6] = In vitro release of d3-creatine and d3-creatinine from d3-prodrugs in mouse liver homogenate (MLH) incubations; assay type: in vitro ADME
# Experimental: For assessment of the ability of prodrugs to release creatine, and to release creatine preferentially to unwanted cyclization to creatinine, d3-labeled (deuterium labeled methyl group) prodrugs are incubated with liver homogenates (e.g., mouse, human) specially prepared to preserve N-reductase activity. The use of d3-labelled prodrugs is essential in order to distinguish prodrug-derived creatine (d3-creatine) from high concentrations of endogenous (non-labeled) creatine. Incubations (37° C.) are performed in 100 mM potassium phosphate buffer, pH 6.0 to optimize N-reductase activity. Prodrugs are tested at final concentrations of 20 μM and 200 μM. Approximately 4-5 mg of homogenate is used for each reaction. Co-factor (NADH) is included at a final concentration of 1 mM. Benzamidoxime (500 μM final concentration) is used as a positive control for N-reductase activity. N-reductase activity is confirmed by conversion of benzamidoxime into benzamidine. Negative controls include incubations without NADH (to assess NADH-independent prodrug cleavage) and incubations without liver homogenate (but with NAPD) to assess non-enzymatic prodrug cleavage under the conditions of the assay. […] Sample supernatants are analyzed by LC-MSMS (HILIC column) for determination of d3-prodrug, d3-creatine and d3-creatinine levels (Table 8).
# [7] = Metabolic stability in human liver microsomal incubations; assay type: in vitro ADME; details: human liver microsomes
# Experimental: as §2
# [8] = animals fed a diet containing up to 1% cyclocreatine; cited from earlier work
# [9] = athletes and body builders, 2-3 gm/day; cited from earlier work
compound,measurement,setting,value
"[2H]C([2H])([2H])N(CC(=O)OCCCCCCC)c1nc(=O)o[nH]1 [Compound E, heptyl 2-[(5-oxo-2H-1,2,4-oxadiazol-3-yl)-(trideuteriomethyl)amino]acetate]",melting point,,110 to 115 °C
same,half-life at 10 μM,[1],> 3 h
same,% Remaining 5 min,"[1]; 10 μM, 5 min",100%
same,% Remaining 60 min,"[1]; 10 μM, 60 min",89.0%
same,half-life at 10 μM,"[2]; simulated gastric fluid (SGF) with pepsin, SGF pH 1.2 with pepsin, read-out: T1/2 (min) (+) pepsin",> 360 min
same,half-life at 10 μM,"[2]; simulated gastric fluid (SGF) without pepsin, SGF pH 1.2 without pepsin, read-out: T1/2 (min) (−) pepsin",> 360 min
same,% Remaining (No NADPH) 30 min,"[3]; mouse liver microsomes, no NADPH, 30 min, 10 μM",15.6%
same,% Remaining (w/NADPH) 5 min,"[3]; mouse liver microsomes, with NADPH, 5 min, 10 μM",89.1%
same,% Remaining (w/NADPH) 30 min,"[3]; mouse liver microsomes, with NADPH, 30 min, 10 μM",26.0%
same,half-life at 10 μM,"[3]; pH 7.4, mouse liver microsomes",0.333 h
same,CLint scaled at 10 μM,"[3]; pH 7.4, mouse liver microsomes, read-out: in vivo Clint",407 mL/min/kg
same,half-life at 10 μM,"[4]; simulated intestinal fluid (SIF) with pancreatin, SIF pH 6.8, title: with pancreatin (1% w/v), read-out: T1/2 (min) (+) pepsin",> 360 min
same,half-life at 10 μM,"[4]; simulated intestinal fluid (SIF) without pancreatin, SIF pH 6.8, title: without pancreatin, read-out: T1/2 (min) (−) pepsin",> 360 min
same,half-life at 10 μM,[5],2.57 h
same,% Remaining 5 min,"[5]; 5 min, 10 μM",101%
same,% Remaining 60 min,"[5]; 1 h, 10 μM",75.6%
same,"Concentration (μM) at 120 min, Prodrug",[6]; Negative Control (No MLH),240 µM
same,"Concentration (μM) at 120 min, Prodrug",[6]; Prodrug + MLH + NADH,4.70 µM
same,half-life at 10 μM,[7],> 1.5 h
same,% Remaining (No NADPH) 30 min,"[7]; no NADPH, 30 min, 10 μM",106%
same,CLint scaled at 10 μM,[7]; read-out: in vivo Clint,< 21 mL/min/kg
same,% Remaining (w/NADPH) 5 min,"[7]; with NADPH, 5 min, 10 μM",103.8%
same,% Remaining (w/NADPH) 30 min,"[7]; with NADPH, 30 min, 10 μM",82.1%
"[2H]C([2H])([2H])N(CC(=O)O)c1nc(=O)o[nH]1 [Example 28, Step 4, 2-[(5-oxo-2H-1,2,4-oxadiazol-3-yl)-(trideuteriomethyl)amino]acetic acid]",melting point,,150 to 155 °C
"[2H]C([2H])([2H])N(CCO)c1nc(=O)o[nH]1 [Example 29, 3-[2-hydroxyethyl(trideuteriomethyl)amino]-2H-1,2,4-oxadiazol-5-one]",melting point,,98 to 104 °C
"CCOC(=O)CN(C)c1noc(=O)[nH]1 [Example 26, ethyl 2-[methyl-(5-oxo-4H-1,2,4-oxadiazol-3-yl)amino]acetate]",melting point,,120 to 123 °C
NC1=NCCN1CC(=O)O [cyclocreatine],adverse effects,[8],do not exhibit adverse effects
CN(CC(=O)O)C(=N)N.O [creatine monohydrate],adverse side effects,[9],without adverse side effects
"[2H]C([2H])([2H])N(CC(=O)OC(C)C)c1nc(=O)o[nH]1 [Example 28, Step 5C, isopropyl 2-[(5-oxo-2H-1,2,4-oxadiazol-3-yl)-(trideuteriomethyl)amino]acetate]",melting point,,143 to 145 °C
"[2H]C([2H])([2H])N(CC(=O)OC)c1nc(=O)o[nH]1 [Example 28, Step 3, methyl 2-[(5-oxo-2H-1,2,4-oxadiazol-3-yl)-(trideuteriomethyl)amino]acetate]",melting point,,120 to 125 °C
"CN(CC(=O)O)c1noc(=O)[nH]1 [Example 27, 2-[methyl-(5-oxo-4H-1,2,4-oxadiazol-3-yl)amino]acetic acid]",melting point,,150 to 155 °C
